Assay results as given in patent US10934274B2, “Quinoline derivatives as TAM RTK inhibitors” (Qurient Co., Ltd., priority 2015, dated 2021).

Tests used:
[1] = molecular target: T1, Axl (Homo sapiens, UniProt P30530); assay: LanthaScreen Eu kinase binding assay, Axl; details: Tracer 236
T1 construct: purchased Life Technologies
T1 sequence (P30530 26-894): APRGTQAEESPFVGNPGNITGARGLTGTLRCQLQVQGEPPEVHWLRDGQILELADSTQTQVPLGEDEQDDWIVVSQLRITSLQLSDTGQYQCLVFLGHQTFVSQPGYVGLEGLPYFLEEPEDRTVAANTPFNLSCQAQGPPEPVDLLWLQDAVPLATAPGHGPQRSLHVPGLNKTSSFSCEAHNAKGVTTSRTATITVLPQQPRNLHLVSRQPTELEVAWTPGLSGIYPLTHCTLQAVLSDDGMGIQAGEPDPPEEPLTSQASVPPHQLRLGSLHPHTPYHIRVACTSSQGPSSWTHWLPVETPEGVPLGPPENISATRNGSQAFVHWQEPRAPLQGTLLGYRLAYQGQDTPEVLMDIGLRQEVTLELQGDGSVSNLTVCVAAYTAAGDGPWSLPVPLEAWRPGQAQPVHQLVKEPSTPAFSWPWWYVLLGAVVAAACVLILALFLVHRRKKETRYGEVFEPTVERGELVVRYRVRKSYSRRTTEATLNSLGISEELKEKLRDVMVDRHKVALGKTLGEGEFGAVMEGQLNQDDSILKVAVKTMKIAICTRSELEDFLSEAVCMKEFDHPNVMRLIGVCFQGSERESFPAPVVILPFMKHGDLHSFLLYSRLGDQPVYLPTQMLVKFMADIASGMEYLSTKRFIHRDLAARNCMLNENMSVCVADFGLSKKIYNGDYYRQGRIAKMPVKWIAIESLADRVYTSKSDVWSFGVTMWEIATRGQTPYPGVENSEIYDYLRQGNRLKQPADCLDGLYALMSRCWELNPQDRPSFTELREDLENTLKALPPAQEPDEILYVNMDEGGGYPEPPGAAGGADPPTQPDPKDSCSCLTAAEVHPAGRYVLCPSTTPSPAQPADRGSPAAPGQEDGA

[2] = molecular target: T2, TYRO3 (Homo sapiens, UniProt Q06418); assay: LanthaScreen Eu kinase binding assay, TYRO3; details: Tracer 236
T2 construct: purchased Life Technologies
T2 sequence (Q06418 41-890): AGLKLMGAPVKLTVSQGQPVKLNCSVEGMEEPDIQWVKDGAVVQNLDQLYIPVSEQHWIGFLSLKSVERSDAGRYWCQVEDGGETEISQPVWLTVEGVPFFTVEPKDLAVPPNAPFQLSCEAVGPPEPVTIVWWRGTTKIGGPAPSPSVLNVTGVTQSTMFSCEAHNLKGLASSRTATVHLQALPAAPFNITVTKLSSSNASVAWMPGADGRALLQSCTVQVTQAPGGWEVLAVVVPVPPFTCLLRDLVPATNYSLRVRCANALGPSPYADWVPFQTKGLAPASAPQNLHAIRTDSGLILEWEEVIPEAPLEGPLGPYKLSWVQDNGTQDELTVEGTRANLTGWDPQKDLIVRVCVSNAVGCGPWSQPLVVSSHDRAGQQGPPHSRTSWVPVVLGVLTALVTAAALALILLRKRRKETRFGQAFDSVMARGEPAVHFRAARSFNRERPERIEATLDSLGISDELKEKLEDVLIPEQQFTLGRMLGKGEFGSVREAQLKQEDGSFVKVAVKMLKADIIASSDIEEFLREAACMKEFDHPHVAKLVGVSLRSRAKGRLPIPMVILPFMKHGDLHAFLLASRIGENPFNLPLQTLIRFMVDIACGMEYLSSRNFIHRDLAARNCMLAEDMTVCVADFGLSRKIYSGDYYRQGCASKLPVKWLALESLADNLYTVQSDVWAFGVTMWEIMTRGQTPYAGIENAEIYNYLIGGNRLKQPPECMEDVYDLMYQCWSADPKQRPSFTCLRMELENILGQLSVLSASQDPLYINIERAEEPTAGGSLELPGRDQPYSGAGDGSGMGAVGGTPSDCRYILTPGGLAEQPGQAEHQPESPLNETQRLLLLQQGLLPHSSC

[3] = molecular target: T3, Met (Homo sapiens, UniProt P08581); assay: LanthaScreen Eu kinase binding assay, Met; details: Tracer 236, read-out: cMet kinase binding activity (Kd)
T3 construct: purchased Life Technologies
T3 sequence (P08581 25-1390): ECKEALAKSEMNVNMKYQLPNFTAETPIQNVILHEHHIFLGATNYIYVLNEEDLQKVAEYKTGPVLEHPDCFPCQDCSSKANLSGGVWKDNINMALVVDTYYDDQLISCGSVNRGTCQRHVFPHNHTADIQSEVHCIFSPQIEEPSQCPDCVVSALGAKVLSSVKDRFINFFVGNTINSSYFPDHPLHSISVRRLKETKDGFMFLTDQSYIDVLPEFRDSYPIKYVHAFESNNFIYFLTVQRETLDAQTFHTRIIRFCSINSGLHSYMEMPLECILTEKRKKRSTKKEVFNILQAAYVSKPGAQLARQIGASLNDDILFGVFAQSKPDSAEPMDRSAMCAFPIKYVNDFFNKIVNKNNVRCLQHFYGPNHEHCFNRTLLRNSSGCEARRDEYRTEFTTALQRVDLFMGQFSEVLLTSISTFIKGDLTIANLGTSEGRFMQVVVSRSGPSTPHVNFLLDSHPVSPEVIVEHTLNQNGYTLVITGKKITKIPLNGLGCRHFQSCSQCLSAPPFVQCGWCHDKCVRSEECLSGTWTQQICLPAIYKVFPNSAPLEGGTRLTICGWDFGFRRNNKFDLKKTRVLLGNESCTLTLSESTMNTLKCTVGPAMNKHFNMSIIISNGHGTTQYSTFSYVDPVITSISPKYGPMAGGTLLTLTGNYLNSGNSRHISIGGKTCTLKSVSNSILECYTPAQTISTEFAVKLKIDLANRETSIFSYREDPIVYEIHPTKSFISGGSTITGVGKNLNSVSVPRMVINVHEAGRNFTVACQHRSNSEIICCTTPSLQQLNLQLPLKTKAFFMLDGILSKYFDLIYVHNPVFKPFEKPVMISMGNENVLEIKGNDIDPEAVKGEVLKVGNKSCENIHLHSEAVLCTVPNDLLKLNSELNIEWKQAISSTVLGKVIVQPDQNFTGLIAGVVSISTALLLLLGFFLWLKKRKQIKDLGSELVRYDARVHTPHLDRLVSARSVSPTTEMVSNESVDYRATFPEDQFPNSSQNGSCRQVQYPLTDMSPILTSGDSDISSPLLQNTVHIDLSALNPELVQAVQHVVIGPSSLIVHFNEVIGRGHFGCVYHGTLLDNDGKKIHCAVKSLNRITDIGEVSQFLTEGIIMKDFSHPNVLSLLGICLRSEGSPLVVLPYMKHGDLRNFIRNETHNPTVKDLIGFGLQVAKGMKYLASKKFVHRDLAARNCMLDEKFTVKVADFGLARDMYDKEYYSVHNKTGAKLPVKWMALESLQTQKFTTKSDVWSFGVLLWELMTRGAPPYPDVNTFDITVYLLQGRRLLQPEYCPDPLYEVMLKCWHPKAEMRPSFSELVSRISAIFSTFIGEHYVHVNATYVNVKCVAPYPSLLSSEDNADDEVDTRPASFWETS

| Structure (SMILES) | Kd [1] | Kd [2] | Kd [3] |
| --- | --- | --- | --- |
| COc1cc2nccc(Oc3ccc(NC(=O)c4nn(-c5ccc(F)cc5OC)cc4OCC4CC4)nc3)c2cc1OC [Compound 264] | < 0.1 µM | < 0.1 µM | < 0.1 µM |
| CCOc1cn(-c2cc[nH]c2)nc1C(=O)Nc1ccc(Oc2ccnc3cc(OC)c(OC)cc23)cn1 [Compound 32] | < 0.1 µM | < 0.1 µM | 0.1 to 1 µM |
| COc1cc2nccc(Oc3ccc(NC(=O)c4nn(-c5cnccc5C(F)(F)F)cc4OCC4CC4)nc3)c2cc1OC [Compound 247] | < 0.1 µM | < 0.1 µM | < 0.1 µM |
| COc1cc2nccc(Oc3ccc(NC(=O)c4nn(-c5cnc(N)nc5)cc4OCC4CCC4)nc3)c2cc1OC [Compound 262] | < 0.1 µM | < 0.1 µM | < 0.1 µM |
| CCOc1cn(-c2cnccn2)nc1C(=O)Nc1ccc(Oc2ccnc3cc(OC)c(OC)cc23)cn1 [Compound 36] | < 0.1 µM | < 0.1 µM | < 0.1 µM |
| CCOc1cn(-c2cnccc2CO)nc1C(=O)Nc1ccc(Oc2ccnc3cc(OC(C)C)c(OC)cc23)cc1F [Compound 231] | < 0.1 µM | < 0.1 µM | 0.1 to 1 µM |
| COc1cc2nccc(Oc3ccc(NC(=O)c4nn(-c5ccc(F)cc5C5CCCC5)cc4OCC4CC4)nc3)c2cc1OC [Compound 270] | 0.1 to 1 µM | 0.1 to 1 µM | 0.1 to 1 µM |
| CCOc1cn(-c2cnc(N)nc2)nc1C(=O)Nc1ccc(Oc2ccnc3cc(OC)c(OC(F)(F)F)cc23)cc1F [Compound 242] | ≥ 1 µM | ≥ 1 µM | ≥ 1 µM |
| COc1cc2nccc(Oc3ccc(NC(=O)c4nn(-c5cncnc5C5CC5)cc4OCC(F)(F)F)nc3)c2cc1OC [Compound 261] | < 0.1 µM | < 0.1 µM | < 0.1 µM |
| CCOc1cn(-c2cnsc2)nc1C(=O)Nc1ccc(Oc2ccnc3cc(OC)c(OC)cc23)cn1 [Compound 39] | < 0.1 µM | < 0.1 µM | < 0.1 µM |
| CCOc1cn(C(C)(C)C(=O)NC)nc1C(=O)Nc1ccc(Oc2ccnc3cc(OC)c(OC)cc23)cn1 [Compound 68] | < 0.1 µM | ≥ 1 µM | 0.1 to 1 µM |
| COc1cc2nccc(Oc3ccc(NC(=O)c4nn(-c5ccc(F)cc5Oc5ccccc5)cc4OCC4CC4)nc3)c2cc1OC [Compound 272] | 0.1 to 1 µM | 0.1 to 1 µM | 0.1 to 1 µM |
| COc1cc2nccc(Oc3ccc(NC(=O)c4nn(-c5cccnc5)cc4OCC4CC4)nc3)c2cc1OC [Compound 255] | < 0.1 µM | < 0.1 µM | < 0.1 µM |
| CCOc1cn(-c2ccc(N(C)C)cc2Cl)nc1C(=O)Nc1ccc(Oc2ccnc3cc(OC)c(OC)cc23)cn1 [Compound 31] | < 0.1 µM | ≥ 1 µM | 0.1 to 1 µM |
| CCOc1cn(C2CCCN(C(C)=O)C2)nc1C(=O)Nc1ccc(Oc2ccnc3cc(OC)c(OC)cc23)cc1F (stereo not drawn) [Compound 224] | < 0.1 µM | 0.1 to 1 µM | 0.1 to 1 µM |
| CCOc1cn(-c2cccnc2Cl)nc1C(=O)Nc1ccc(Oc2ccnc3cc(OC)c(OC)cc23)cn1 [Compound 19] | < 0.1 µM | < 0.1 µM | < 0.1 µM |
| CCOc1cn(CCOC)nc1C(=O)Nc1ccc(Oc2ccnc3cc(OC)c(OC)cc23)cn1 [Compound 64] | < 0.1 µM | < 0.1 µM | < 0.1 µM |
| COc1cc2nccc(Oc3ccc(NC(=O)c4nn(-c5ccc(F)cc5Cl)cc4OCC4CC4)nc3)c2cc1OC [Compound 263] | < 0.1 µM | < 0.1 µM | < 0.1 µM |
| CCOc1cn(-c2ccoc2)nc1C(=O)Nc1ccc(Oc2ccnc3cc(OC)c(OC)cc23)cn1 [Compound 33] | < 0.1 µM | < 0.1 µM | < 0.1 µM |
| CCOc1cn(C)nc1C(=O)Nc1ccc(Oc2ccnc3cc(OC)c(OC)cc23)cn1 [Compound 29] | 0.1 to 1 µM | 0.1 to 1 µM | 0.1 to 1 µM |

| Structure (SMILES) | Kd [1] | Kd [2] | Kd [3] |
| --- | --- | --- | --- |
| COc1cc2nccc(Oc3ccc(NC(=O)c4nn(-c5cccnc5)cc4OCC4CC4)nc3)c2cc1OC(F)(F)F [Compound 239] | < 0.1 µM | < 0.1 µM | 0.1 to 1 µM |
| COc1cc2c(Oc3ccc(NC(=O)c4nn(-c5cnc(N)cn5)cc4OCC(F)(F)F)nc3)ccnc2cc1OC(C)C [Compound 253] | < 0.1 µM | < 0.1 µM | < 0.1 µM |
| COc1cc2c(Oc3ccc(NC(=O)c4nn(-c5cnc(N)nc5)cc4OCC(F)(F)F)c(F)c3)ccnc2cc1OC(C)C [Compound 243] | < 0.1 µM | < 0.1 µM | < 0.1 µM |
| CCOc1cnn(-c2ccsc2)c1C(=O)Nc1ccc(Oc2ccnc3cc(OC)c(OC)cc23)cn1 [Compound 21] | < 0.1 µM | 0.1 to 1 µM | 0.1 to 1 µM |
| CCOc1cn(CC2CCO2)nc1C(=O)Nc1ccc(Oc2ccnc3cc(OC)c(OC)cc23)cn1 (stereo not drawn) [Compound 48] | < 0.1 µM | < 0.1 µM | 0.1 to 1 µM |
| COc1cc2nccc(Oc3ccc(NC(=O)c4nn(-c5ccc(F)cc5C(C)=O)cc4OCC4CC4)nc3)c2cc1OC [Compound 273] | < 0.1 µM | 0.1 to 1 µM | 0.1 to 1 µM |
| COc1cc2nccc(Oc3ccc(NC(=O)c4nn(-c5ccc(F)cc5F)cc4OCC(F)(F)F)nc3)c2cc1OC [Compound 268] | < 0.1 µM | < 0.1 µM | < 0.1 µM |
| CCOc1cn(-c2ccc(OC)cc2)nc1C(=O)Nc1ccc(Oc2ccnc3cc(OC)c(OC)cc23)cn1 [Compound 1] | < 0.1 µM | 0.1 to 1 µM | < 0.1 µM |
| CCOc1cn(-c2ccc(C#N)cn2)nc1C(=O)Nc1ccc(Oc2ccnc3cc(OC)c(OC)cc23)cn1 [Compound 43] | ≥ 1 µM | ≥ 1 µM | ≥ 1 µM |
| COc1cc2nccc(Oc3ccc(NC(=O)c4nn(-c5ccc(F)cc5F)cc4OCC4CC4)nc3)c2cc1OC [Compound 267] | < 0.1 µM | < 0.1 µM | < 0.1 µM |
| CCOc1sc(-c2cccnc2)nc1C(=O)Nc1ccc(Oc2ccnc3cc(OC)c(OC)cc23)cn1 [Compound 45] | < 0.1 µM | < 0.1 µM | < 0.1 µM |
| CCOc1cn(C2CCN(C)C2)nc1C(=O)Nc1ccc(Oc2ccnc3cc(OC)c(OC)cc23)cc1F (stereo not drawn) [Compound 212] | 0.1 to 1 µM | 0.1 to 1 µM | 0.1 to 1 µM |
| CCOc1cn(-c2ccncc2Cl)nc1C(=O)Nc1ccc(Oc2ccnc3cc(OC)c(OC)cc23)cn1 [Compound 26] | < 0.1 µM | 0.1 to 1 µM | < 0.1 µM |
| CCOc1cn(-c2cnccc2CN(C)C)nc1C(=O)Nc1ccc(Oc2ccnc3cc(OC)c(OC)cc23)cn1 [Compound 73] | < 0.1 µM | 0.1 to 1 µM | 0.1 to 1 µM |
| CCOc1cn(-c2cnccc2CCCN(C)C)nc1C(=O)Nc1ccc(Oc2ccnc3cc(OC)c(OC)cc23)cn1 [Compound 61] | < 0.1 µM | < 0.1 µM | < 0.1 µM |
| CCOc1cn(-c2ccncc2C)nc1C(=O)Nc1ccc(Oc2ccnc3cc(OC)c(OC)cc23)cn1 [Compound 34] | < 0.1 µM | < 0.1 µM | < 0.1 µM |
| COc1cc2nccc(Oc3ccc(NC(=O)c4nn(-c5cnc(N)nc5)cc4OCC4CNC4)nc3)c2cc1OC [Compound 265] | 0.1 to 1 µM | ≥ 1 µM | ≥ 1 µM |
| CCOc1cn(-c2ccsc2)nc1C(=O)Nc1ccc(Oc2ccnc3cc(OC)c(OC)cc23)cn1 [Compound 18] | < 0.1 µM | < 0.1 µM | 0.1 to 1 µM |
| CCOc1cnn(-c2ccco2)c1C(=O)Nc1ccc(Oc2ccnc3cc(OC)c(OC)cc23)cn1 [Compound 58] | < 0.1 µM | 0.1 to 1 µM | 0.1 to 1 µM |
